“Also recorded” adds a separate entry of the source.
Legend:
tau = assay: Hippocampal phospho-tau and total tau in 3×Tg AD mice; assay type: in vivo, mouse; settings: 9-month 3×Tg AD mice, 5 mM, 1 μL
Description: Mice weighting 20–30 g were anesthetized with 1% pentobarbital sodium (35 mg/kg), and fixed in a stereotaxic instrument (RWD). The scalp was sterilized with iodophors and 75% ethanol, and incised along the skull midline. Holes were drilled. Adeno-associated virus or DEPTAC was injected into the dorsal DG (posterior 1.9 mm, lateral ±1.1 mm from the bregma, ventral −2.0 from the skull) or lateral ventricle (posterior 0.22 mm, lateral ±1.0 mm from the bregma, ventral −2.5 from the skull), respectively, using an automatic microinjection system (World Precision Instruments, USA) at a rate of 0.05 μL/min. The needle syringe was left in place for 5 min before withdrawal. The skin was sutured and sterilized with iodophors. Mice were placed on thermos tank for analepsia.
(§1) For 2-month male C57BL/6 mice, 10 mM FITC-labeled or unlabeled-DEPTAC were directly injected through the tail vein or lateral ventricle for the evaluation of BBB-penetrability. For 9-month 3×Tg AD mice or Tau368 (20–30 g body weight), unlabeled-DEPTAC (5 mM, 1 μL for each time) was delivered for once into the lateral ventricle through direct stereotaxic injection, or repeatedly administrated through guiding cannulas (RWD, Shenzhen, China) implanted into the lateral ventricle once every 3 days for a consecutive month to test its dephosphorylation efficiency. Mice were restricted in a custom designed device and stayed awake during drug administration, and sacrificed at 24 h post the single or last DEPTAC administration.
Cultured cells or hippocampus tissues were collected on ice, and homogenized with RIPA lysis buffer containing 50 mM Tris-HCl, 100 mM NaCl, 1% Triton X-100, 5 mM EDTA, and 1:100 PMSF, and then centrifuged at 12,000 × g for 20 min. The supernatant was collected for the analysis of soluble proteins. In some experiments, the pellets were further incubated with 8% SDS buffer at 37 °C and then ultrasound for 60 times to reach a complete resuspension for the analysis of insoluble tau. Protein concentration was measured through BCA assays (Thermo Fisher). Equal amount of protein from each sample were separated in SDS-PAGE gels, and then transferred onto nitrocellulose or 0.22 μm polyvinylidene fluoride membranes (Merck Millipore). […] Blots were visualized using ECL luminol reagent (P0018FS, Beyotime), and quantified using ImageJ software.

human tau (hTau) = assay: Immunofluorescence staining of phospho-tau in primary neurons with hTau overexpression; assay type: cell-based; settings: DEPTAC 200 μM for 24 h; *p < 0.05, **p < 0.01, n = 3 cell wells
Description: Lentivirus LV-EF1α-hTau-GFP (3.50E+8 vg/mL) was packaged by OBiO (Shanghai, China) and used for hTau-overexpression (fused with GFP) in cultured primary rat neurons. AAV-CaMKIIα-Cre (diluted to 5.21E + 07 vg/mL) and AAV-EF1α-DIO-mCherry (3.24E + 12 vg/mL) were obtained from BrainVTA (Wuhan, China) and co-injected (1:1 vol/vol) for sparse labeling of dorsal DG neurons. Doxycycline was purchased from Energy Chemical (Shanghai, China). Rabbit polyclonal DEPTAC antibody was prepared by Daian Biotechnology (Wuhan, China). All other reagents including MG132 were purchased from Sigma-Aldrich (USA), unless otherwise specified.
Primary hippocampal neurons were prepared from E12–E15 days SD rat embryos. Briefly, pregnant rats were acutely executed, hippocampus was dissected on ice and gently minced in DME/F12 (Hyclone) then suspended in 0.125% (vol/vol) trypsin solution at 37 °C for 20 min. Enzymatic activity was stopped by fetal bovine serum. Neurons were initially kept in 10% FBS-containing DME/F12 for 4–6 h, and subsequently cultured in Neurobasal (Hyclone) with 2% B27, 1% glutamax and 1% penicillin–streptomycin (Thermo Fisher Scientific) in dishes pre-coated with 100 μg/mL poly-D-lysine. Serum was gradually removed by replacing half of the medium for each time within the following 2 days. […]

tau aggregation = assay: Thioflavin T staining of tau aggregation in the DG of Tau368 mice; assay type: in vivo, mouse; settings: DEPTAC for a consecutive month after stopping dox; **p < 0.01, n = 4–5 mice
Description: as §1
Free-floating brain sections were washed with Tris-buffered saline (TBS) for 3 × 5 min, and then incubated with 0.3% Thioflavin T (Sigma) dissolved in 50% ethanol at room temperature for 10 min. The sections were then decolorized in 50% ethanol for 3 × 5 min, washed in TBS, and subsequently co-stained with DAPI for 10 min.

[1] = intracerebroventricular, once every 3 days for a consecutive month, *p < 0.05, n = 4

(1) YQQYQDATADEQG, originates from the porcine β-tubulin 422–434 for recognizing and binding tau proteins.[5],[6] (2) GSGS, a linker for increasing the flexibility of the peptide.[15] (3) KKVAVVRTPPKSP, for recruiting PP2A-Bα,[16] and (4) RRRRRRRR [DEPTAC, DEPhosphorylation TArgeting Chimera; 38 amino acid residues, C185H314N72O56]
hippocampal phospho-tau, repeated delivery (tau; [1]): significantly reduced
hippocampal total tau, repeated delivery (tau; [1]): significantly reduced
hippocampal phospho-tau, delivered for once (tau; once, n = 4): tended to decrease; also recorded: relatively limited
hippocampal total tau, delivered for once (tau; once, n = 4): tended to decrease; also recorded: relatively limited
averaged immunoreactive (IR) intensity of phospho-tau (human tau (hTau)): reduced
thioflavin T (ThT)-stained tau aggregation in the DG (tau aggregation): ameliorated
